Values joined by “and” are separate entries in the source; they are usually repeats but may differ in a detail not shown here. Identical values can stand only once. Values belong to the molecule of their own block, whether it stands above or below them.
Key:
Or47a and Or83b = target: T1, Or47a and Or83b (Drosophila melanogaster, UniProt P81921+Q9VNB5); experiment: Whole-cell patch-clamp of HEK293 cells expressing Or47a and Or83b; format: cell-based; conditions: 100 µM; -100 mV (Fig. 7)
T1 construct: expressed in transfected cells; host or cells: HEK293
T1 sequence (P81921 1-385): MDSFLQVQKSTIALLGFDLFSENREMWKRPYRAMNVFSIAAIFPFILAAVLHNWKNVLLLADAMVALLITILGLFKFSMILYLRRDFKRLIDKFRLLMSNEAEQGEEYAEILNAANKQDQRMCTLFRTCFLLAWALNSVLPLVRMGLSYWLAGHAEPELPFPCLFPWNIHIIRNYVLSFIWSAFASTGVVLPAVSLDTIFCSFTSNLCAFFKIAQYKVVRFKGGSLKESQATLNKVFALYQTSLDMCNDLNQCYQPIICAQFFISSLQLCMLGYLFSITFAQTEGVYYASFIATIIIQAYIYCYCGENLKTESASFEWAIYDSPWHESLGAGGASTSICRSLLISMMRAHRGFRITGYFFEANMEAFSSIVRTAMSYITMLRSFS
T1 sequence (Q9VNB5 1-486): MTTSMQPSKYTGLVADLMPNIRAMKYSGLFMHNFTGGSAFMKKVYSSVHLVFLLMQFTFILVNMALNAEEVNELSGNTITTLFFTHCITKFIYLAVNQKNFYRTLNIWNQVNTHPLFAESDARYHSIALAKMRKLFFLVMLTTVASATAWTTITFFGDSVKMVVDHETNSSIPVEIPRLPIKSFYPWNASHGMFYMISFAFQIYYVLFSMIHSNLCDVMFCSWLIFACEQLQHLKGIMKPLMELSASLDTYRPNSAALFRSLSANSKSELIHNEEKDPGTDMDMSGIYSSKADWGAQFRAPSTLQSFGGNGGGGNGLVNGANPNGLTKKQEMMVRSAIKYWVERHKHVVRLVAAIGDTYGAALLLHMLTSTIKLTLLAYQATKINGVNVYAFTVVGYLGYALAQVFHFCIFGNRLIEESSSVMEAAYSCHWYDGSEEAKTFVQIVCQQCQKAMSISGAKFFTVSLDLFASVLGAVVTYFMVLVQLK
Procedure: (§1) In some experiments we transfected cells with pcDNA3-DOR22a-GFP or pcDNA3-DOR83b-GFP alone. We also examined the properties of DOR47a, which was cloned, using standard molecular biology methods into a pcDNA3.1(-) expression vector. To test for putative G-protein coupling, cells were transfected with the respective OR-DNA together with 1.5 µg hHCN2/pcDNA3 (provided by M. Biel, Munich, Germany), with 1 µg hKCNQ4/pcDNA3.1 or with 1 µg hCNGA2/pCMV6-XL4 (Origene, Rockville, MD, USA).
(§2) In brief, ion currents in HEK293 cells were measured at room temperature using whole-cell patch-clamp with appropriate compensation of series resistance and of capacitive currents. Additional experiments were performed in the outside-out configuration. Current measurements and data acquisition were performed using an EPC9 patch-clamp amplifier controlled by PatchMaster software (both HEKA Elektronik, Lambrecht, Germany). Patch-clamp pipettes were fabricated from borosilicate capillaries. Pipettes for whole-cell recordings had resistances of 2-4 MΩ for excised-patch recordings the pipette resistance was up to 15 MΩ.

Or83b [1] = target: T2, Or83b (Drosophila melanogaster, UniProt Q9VNB5); experiment: Whole-cell patch-clamp of HEK293 cells expressing Or83b alone; format: cell-based; design: expressed in transfected cells; host or cells: HEK293
T2 sequence (Q9VNB5 1-486): T1 sequence (Q9VNB5 1-486)
Procedure: as §1, §2
(§3) To differentiate between ionotropic and metabotropic pathways of receptor activation (Fig. 2a-d) the pipette solution contained either 2 mM ATP plus 2 mM GTP or 2 mM ADP plus 2 mM GDP (both for whole-cell and outside-out configuration). For the preparation of Cl^--free solutions the chloride salts were substituted by gluconate salts. The pipette Cs^+ solution contained (in mM) 140 CsCl, 1 Mg-ATP, 10 EGTA, 10 HEPES (pH = 7.3), and the Cs^+ bath solution contained (in mM) 140 CsCl, 15 glucose, 15 HEPES (pH = 7.4). The Ca^2+-free bath solution contained (in mM) 140 NaCl, 15 glucose, 15 HEPES, and the Na^+-free bath solution contained (in mM) 140 NMDG-Cl, 10 CaCl2, 10 glucose, 15 HEPES.
(§4) With the exception of GDP-γ-S, which was applied via the patch pipette, all substances were applied to the bath using either a bath perfusion system (BPS4 from ALA, New York, USA) or a rapid solution changer (RSC160 from Biologic, Claix, France) which were controlled by the PatchMaster software (HEKA Elektronik).

[2] = target: Periplaneta adipokinetic hormone receptor (pAKHR) (Periplaneta); experiment: cell-based or functional assay
Or83b [3] = target: T2, Or83b; experiment: cell-based; conditions: -60 mV, n = 10
Procedure: For this, HEK293 cells were cultured at a density of ∼2*10^4 per 35-mm dish and transfected with 1 µg pcDNA3-DOR83b-GFP (Neuhaus et al., Nat Neurosci 8: 15-17, 2005.) using Roti-Fect transfection kit (Roth, Karlsruhe, Germany). For electrophysiological experiments we only used cells showing GFP fluorescence (when illuminated at 470 nm) as indicator of putative OR expression.
For electrophysiological studies, ion currents in HEK293 cells were measured at room temperature in the inside-out configuration. Current measurements and data acquisition were performed using an EPC9 patch-clamp amplifier controlled by PatchMaster software (both HEKA Elektronik, Lambrecht, Germany). Patch-clamp pipettes were fabricated from borosilicate capillaries. Pipettes for whole-cell recordings had resistances of up to 15 MΩ. The bath solution contained (in mM) 140 KCI, 4 NaCl, 2.2 CaCl2, 2 Mg-ATP, 0.05 Na-GTP, 5 EGTA, 10 HEPES (pH 7.3), and the pipette solution contained (in mM) 135 NaCl, 5 KCI, 1 CaCl2, 1 MgCl2, 10 HEPES, 10 glucose (pH 7.4).

[4] = test system: modified cyclic nucleotide-gated ion channels; conditions: US 07166463 and US 07341836; cited from earlier work
Or22a and Or83b = target: T3, Or22a and Or83b (Drosophila melanogaster, UniProt P81909+Q9VNB5); experiment: Whole-cell patch-clamp of currents in HEK293 cells coexpressing Or22a and Or83b; format: cell-based; conditions: absence of Etb; 10 µM benzaldehyde; n = 6
T3 construct: expressed in transfected cells; host or cells: HEK293
T3 sequence (P81909 1-397): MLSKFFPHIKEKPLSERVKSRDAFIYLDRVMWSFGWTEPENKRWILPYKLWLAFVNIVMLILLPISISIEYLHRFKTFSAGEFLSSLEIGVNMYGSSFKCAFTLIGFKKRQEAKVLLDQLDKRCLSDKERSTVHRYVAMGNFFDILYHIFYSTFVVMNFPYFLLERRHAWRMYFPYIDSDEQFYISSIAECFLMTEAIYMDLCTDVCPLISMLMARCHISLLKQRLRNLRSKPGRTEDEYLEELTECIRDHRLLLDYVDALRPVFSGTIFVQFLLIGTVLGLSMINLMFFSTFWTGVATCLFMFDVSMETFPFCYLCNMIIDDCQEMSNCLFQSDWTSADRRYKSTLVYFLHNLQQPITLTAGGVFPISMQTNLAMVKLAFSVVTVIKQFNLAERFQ
T3 sequence (Q9VNB5 1-486): T1 sequence (Q9VNB5 1-486)
Procedure: as §1, §2, §3, §4

vertebrate CNGA2 channel = target: T4, vertebrate CNGA2 channel (Rattus norvegicus, UniProt Q00195); conditions: Dhallan et al., Nature 347 (1990); cited from earlier work
T4 sequence (Q00195 1-664): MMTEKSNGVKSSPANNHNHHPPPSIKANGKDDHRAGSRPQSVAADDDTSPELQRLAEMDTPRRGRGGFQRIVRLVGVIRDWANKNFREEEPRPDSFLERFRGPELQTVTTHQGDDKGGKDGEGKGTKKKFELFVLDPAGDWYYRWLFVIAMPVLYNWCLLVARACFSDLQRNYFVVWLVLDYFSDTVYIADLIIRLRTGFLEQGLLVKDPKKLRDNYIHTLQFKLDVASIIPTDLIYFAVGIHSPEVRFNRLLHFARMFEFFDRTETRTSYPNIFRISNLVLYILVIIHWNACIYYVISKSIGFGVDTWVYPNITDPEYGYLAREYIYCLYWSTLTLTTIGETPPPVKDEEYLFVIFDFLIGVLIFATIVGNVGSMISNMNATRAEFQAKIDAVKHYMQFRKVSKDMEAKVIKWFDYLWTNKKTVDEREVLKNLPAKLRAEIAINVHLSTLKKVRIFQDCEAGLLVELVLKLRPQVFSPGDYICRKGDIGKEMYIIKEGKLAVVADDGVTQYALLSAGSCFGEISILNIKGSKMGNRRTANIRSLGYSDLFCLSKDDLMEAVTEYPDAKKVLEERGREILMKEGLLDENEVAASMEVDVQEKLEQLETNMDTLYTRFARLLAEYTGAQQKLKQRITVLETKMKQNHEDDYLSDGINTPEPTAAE

Or83b [5] = target: T2, Or83b; experiment: Calcium imaging (fura-2) in HEK293 cells expressing Or83b; format: cell-based; design: expressed in transfected cells; host or cells: HEK293; conditions: cell expressing Or83b (Fig. 6e)
Procedure: Free intracellular Ca^2+ concentration ([Ca^2+]i) was determined by fura-2 fluorescence as described (Messutat et al., Cell Calcium 30, 199-211. (2001)). In brief, cells were loaded with fura-2 by incubation in bath solution containing 2 µM fura-2/acetomethylester for 20 min. Free intracellular Ca^2+ concentration ([Ca^2+]i) was determined with the fluorescence ratio method. Excitation of fura-2 at 340 and 380 nm was performed with a monochromator (Polychrome II, T.I.L.L. Photonics, Gräfelfing, Germany) coupled via an epifluorescence condenser into an Axioskop FS microscope (Carl Zeiss, Jena, Germany) with a water immersion objective (LUMPFL 40xW/IR/0.8; Olympus, Hamburg, Germany). […] [Ca^2+]i was calculated according to the equation [Ca^(2 +)]i = Keff (R-Rmin)/(Rmax-R). […] Keff, Rmin, and Rmax were determined using HEK293 cells permeabilized with 2 µM ionomycin and three solutions with different concentrations of free Ca^2+ (Ca^2+ free; 5 mM Ca^2+; 500 nM Ca^2+; the composition of the 500 nM solution was calculated with WEBMAXC v.2.20) (Patton et al., Cell Calcium 35, 427-31 (2004)). […]
Fluorescence images were acquired using a cooled CCD camera controlled by TILLVision 4.0 software (T.I.L.L. Photonics). […] Image pairs were obtained by excitation for 100 ms at 340 nm and 380 nm; background fluorescence was subtracted.

Molecule: CCCCCOC(C)=O [PA, pentyl acetate]
current response of cells (Or47a and Or83b): responding

Molecule: CCCCCCOC(=O)C1(O)CC2OC1(C)n1c3ccccc3c3c4c(c5c6ccccc6n2c5c31)C(=O)NC4 (stereo not drawn) [KT5720]
effect of preincubation on ion currents elicited by 8-bromo-cAMP (Or83b [1]; 10 µM, n = 6): not significantly altered

membrane current at -100 mV (whole-cell patch clamp, ramp protocol) in HEK293 cells coexpressing pAKHR and the cAMP-activated channel Or83b, after application of AKH I [2]: 294 pA
Molecule: adipokinetic hormone I (AKH I) (peptide)

Molecule: Nc1ncnc2c1ncn2[C@@H]1O[C@@H]2COP(=O)(O)O[C@H]2[C@H]1O [cAMP, 3'-5'-cyclic adenosine monophosphate]
Hill coefficient of mean currents of inside-out patches (Or83b [3]): 0.42
EC50 (Or83b [3]; EC50 of mean currents of inside-out patches): 1 nM and 1.1 nM
EC50 [4]: 14500 nM

Molecule: O=Cc1ccccc1 [Bea, benzaldehyde]
effect on current recorded under control conditions (Or22a and Or83b): reduced the current recorded under control conditions

Molecule: Nc1nc2c(ncn2[C@@H]2O[C@@H]3COP(=O)(O)O[C@H]3[C@H]2O)c(=O)[nH]1 [cGMP, cyclic guanosine monophosphate]
EC50 (vertebrate CNGA2 channel): 1000 nM

Molecule: Nc1nc2c(nc(Br)n2[C@@H]2O[C@@H]3COP(=O)(O)O[C@H]3[C@H]2O)c(=O)[nH]1 [8-bromo-cGMP]
current response of cells (Or47a and Or83b): responsive
current elicited (Or83b [1]; Or83b-expressing HEK293 cells): elicited a current similar to that obtained upon 8-bromo-cAMP application
agonist comparison for current activation (Or83b [1]; concentration-response relations, -100 mV (Fig. 6d)): significantly better agonist than 8-bromo-cAMP
agonist comparison for the elevation of [Ca^2+]i (Or83b [5]): significantly better agonist than 8-bromo-cAMP

Reference: EP2108954A1, “A test system for detecting intracellular cyclic nucleotide level and methods and uses thereof” (Max-Planck-Gesellschaft zur Förderung der Wissenschaften …, priority 2008, dated 2009)
